Data taken from US20080176224A1, “Methods for Identifying a Patient as a Candidate for Treatment with a Long Acting Beta Agonist and for Predicting a Patient's Response to Long Acting Beta2 Agonist Therapy by Analysing Polymorphisms in the Beta2-Adrenergic Receptor Gene” (ASTRAZENECA AB, priority 2004, published 2008).
Where a name gives a salt, the structure may show the parent alone.

How the values were obtained:
[1] = tested on: patients with stable COPD; assay: Serial and pre-dose FEV1 (spirometry) in Viozan phase III clinical trials, stratified by ADRB2 haplotype; type: in vivo, human
Source text: (§1) Samples for genotyping were taken from 2450 patients recruited in four Viozan™ phase III clinical trials, namely SC-397-5097, SC-397-5098, SC-397-5099 and SC-397-5163. The patient population included male and female patients, aged 40 to 80 years, with stable COPD, symptoms for ≧2 years, and a smoking history of at least 15 pack years. […] Further details about the patient population, and the study designs, are described in Laursen et al. Respiratory Medicine (2003), Vol 97, Suppl A, S23-S33. Participation in the genetics sub-study was voluntary. Patients gave separate written informed consent for the genetic analysis. Patients all consented to provide DNA for use in studying the response to Viozan™. Viozan™ is a dual agonist, targeting the β2-adrenergic receptor and the […] genes, developed for the treatment of COPD (Rennard, 2003, Respiratory Medicine, Vol 97, Suppl A, S1-S2).
Pre- and post-dose FEV1 (forced expiratory volume in 1 second), the volume of air exhaled in the first second of the FVC manoeuvre (expressed in litres), measurements were taken at each study visit for all patients, as described in the clinical study protocols. Spirometry measurements were performed using a standard technique at each centre. Details about the spirometer used and the calibration records were provided by each centre. After resting for 15 minutes, slow vital capacity (SVC), forced vital capacity (FVC) and FEV1 were measured for at least three separate manoeuvres. The greatest values for each parameter were recorded.
Serial measurements were taken on day 1 (studies SC-397-5097 and SC-397-5098), weeks 8 and 12 (SC-397-5098) and weeks 14 and 26 (SC-397-5097). The AUC0-8, mean FEV1 at 8 hrs and mean maximum change from pre-dose (FEV1 max) were calculated. These measurements were used to investigate the bronchodilator properties of Viozan™, a long-acting β2-agonist.
Because serial FEV1 measurements were available for only a small number of subjects, and to increase the power of the analyses, the data was subsequently analysed in two subgroups (‘binning’) based on the haplotype pair of each patient; “C” haplotypes (i.e. patients having at least one copy of the ‘C’ haplotype) and “non-C” haplotype (i.e. patients having no ‘C’ haplotype). ‘C’ haplotype group included patients with haplotypes AC, BC and CC, whilst the non-C haplotype group included subjects with haplotypes AA, BB and AB. For the ‘binned’ haplotype analyses, subjects with one or more copies of haplotype D and E were not included, as there were few subjects with these haplotype pairs.
Assessment of the relationship between ADRB2 haplotype and the long-term FEV1 response, was achieved by comparing the pre-treatment and pre-dose baselines. The “pre-treatment” FEV1 baseline is for no prior exposure to the study drug, and was measured at day 1 (visit 2), immediately prior to treatment with Viozan™. The “pre-dose” FEV1 baseline is that measured prior to administration of drug on that day at subsequent visits, during the course of the trials, i.e. at weeks 8 and 12 (SC-397-5098) and weeks 14 and 26 (SC-397-5097). […] Observations are consistent with a trend for prolonged bronchodilation in the C haplotype subgroup and better overall long-term lung function in response to regular treatment with Viozan™ and long acting β2-agonists.
Analysis of the serial FEV1 response between first treatment and following 3 months of Viozan™ treatment was determined by subtracting the pre-treatment baseline (visit 2) from the absolute FEV1 measurements collected at visit 2 (day 1) and the combined data for week 12 (SC-397-5098) and week 14 (SC-397-5097). […] Serial FEV1 response at day 1 (visit 2) overlaps with that at 3 months post treatment, for patients in the ‘C’ haplotype subgroup. A similar response is observed for the non-C haplotype group at day 1 (visit 2). However, the serial FEV1 response, in the non-C haplotype group, appears to be reduced after 3 months of treatment. […]

[2] = tested on: patients with stable COPD; assay: BCSS (breathlessness, cough and sputum score) change from baseline in Viozan clinical trials, stratified by ADRB2 haplotype; type: in vivo, human
Source text: as §1
Changes in COPD symptoms were assessed using the BCSS (breathlessness, cough and sputum score), also referred to as the TSS (total symptom score). Each symptom, that is breathlessness, cough and sputum, was evaluated daily by the patient and recorded in a diary using a 5-point Likert scale (ranging from 0 to 4, with the higher values indicating more sever symptoms). The three item scores were summed to calculate the BCSS total score, resulting in a value between 0 and 12. The reliability and validity of the BCSS for evaluating symptoms in COPD is discussed in Leidy et al, 2003, Respiratory Medicine, Vol 97, SupplA, S59-S70. A mean change of ±1 point on the BCSS total score represents a substantial improvement in symptom severity for patients with moderate to severe COPD (Celli et al. Respiratory Medicine, (2003) Vol 97, SupplA, S35-43).

[3] = tested on: asthmatics; settings: cited from earlier work
[4] = 3 mth (SC-397-5098) and 6 mth (SC-397-5097) treatment, trend
[5] = first exposure, trials SC-397-5097 and SC-397-5098

| SMILES | change in baseline (trough) FEV1 over the course of the trials, C-haplotype sub-group [1, 4] | change in baseline (trough) FEV1 over the course of the trials, subjects lacking C-haplotype [1, 4] | serial FEV1 response after 3 months of treatment, non-C haplotype group ([1]; change from pre-treatment baseline, combined week 12 and week 14 data, versus day 1) | time after treatment at which FEV1 response was observed [1, 5] [min] | time for which FEV1 continued to increase post treatment [1, 5] | time of maximum FEV1 increase post study drug [1, 5] | serial FEV1 response, patients with BB haplotype pair ([1]; first exposure, BB (N=13), compared with other haplotype pairs) | serial FEV1 response, patients with BC haplotype ([1]; first exposure, BC (N=21)) | difference in FEV1 between subgroups stratified by ADRB2 haplotype pair ([1]; serial FEV1 at first exposure, haplotype pairs AA, AC, BA, BB, BC) | patients with a clinically significant BCSS response compared to mean placebo response ([2]; C-haplotype group share of the clinical trial population) | BCSS response in C haplotype sub-group versus non-C haplotype group and versus placebo ([2]; change from baseline to final 4 weeks, combined SC-397-5163 and SC-397-5098) | reduction in mean BCSS, 'C' Haps (AC, BC, CC) compared to 'Non-C' Haps (AA, BB, BA) ([2]; combined studies SC-397-5163 and SC-397-5098) | BCSS response in C haplotype sub-group versus non-C haplotype subgroup ([2]; study SC-397-5163, 3 month, C Haps N=84, non-C Haps N=201) | difference in mean BCSS change from baseline to final 4 weeks of treatment, Viozan versus placebo ([2]; unstratified patient population) | lung function response, 2/2 haplotype ([3]; 2/2 corresponds to AA) | lung function response, 4/4 haplotype ([3]; 4/4 corresponds to BB) | lung function response, 4/6 haplotype ([3]; 4/6 corresponds to BC) |
| --- | --- | --- | --- | --- | --- | --- | --- | --- | --- | --- | --- | --- | --- | --- | --- | --- | --- |
| O=c1[nH]c2c(O)ccc(CCNCCS(=O)(=O)CCCOCCc3ccccc3)c2s1 [Viozan, Sibenadet HCl] | increase | decrease slightly | reduced | 5 | up to 2 hours | one to two | smaller | greatest response | approximately 100 cc | approximately 30% | significantly better | up to 0.6 | significantly better | neither statistically significant, nor considered to be of clinical importance | – | – | – |
| CC(C)(C)NCC(O)c1ccc(O)c(CO)c1 (centres unmarked) [albuterol, albuterol sulphate] | – | – | – | – | – | – | – | – | – | – | – | – | – | – | intermediate response | lowest response | best response |
